Assay results published in US20060235046A1, “Use of an epidermal growth factor receptor kinase inhibitor (EGFR) in gefitinib resistant patients” (Wyeth, priority 2005, published 2006).

What was measured:
[1] = test system: non-small cell lung cancer (NSCLC); assay: Report on 2 patients with non-small cell lung cancer (NSCLC) who received EKB-569 after gefitinib and recurrence; format: in vivo, human; conditions: two patients (Exon 19 del E746-A750, 25 mg/day for 9 months; Exon 21 L858R, 35 mg/day for 4 months) after treatment with gefitinib and recurrence of NSCLC
Method: Report on 2 Patients with Non-Small Cell Lung Cancer (NSCLC) Who Received EKB-569.
A person with a smoking history BI 720 […] having adenocarcinoma and cT0NOM1 (multiple pulmonary metastasis). Exon 19 deletion E746-A750 is identified. Herception test score was 0+ and EGFR score 2+. The patient was given 25 mg/day EKB-569 for 9 months.
A person with a smoking history of BI 30 (10×3 years) having adenocarcinoma performance status 1, cT0N3M1 (pulmonary, brain and bone). Exon 21 point mutation L858R. HercepTest score +, EGFR score 3+, EKB-569 35 mg/day for 4 months.
Phase 1 dose-escalation study of EKB-569 was completed in Japanese patients with advanced-stage malignancies known to overexpress EGFR.

NSCLC = conditions: in some cases; re-treatment when NSCLC recurs in patients treated with gefitinib; cited from earlier work

| Structure (SMILES) | clinical effectiveness in NSCLC patients [1] | effectiveness of re-treatment in recurrent NSCLC (NSCLC) |
| --- | --- | --- |
| CCOc1cc2ncc(C#N)c(Nc3ccc(F)c(Cl)c3)c2cc1NC(=O)C=CCN(C)C [EKB-569, 4-dimethylamino-but-2-enoic acid [4-(3-chloro-4-fluoro-phenylamino)-3-cyano-7-ethoxy-quinolin-6-yl]-amide] | effective |  |
| COc1cc2ncnc(Nc3ccc(F)c(Cl)c3)c2cc1OCCCN1CCOCC1 [gefitinib] |  | effective |
